Results taken from patent US8273760B2, “Indolo[3,2-c]quinoline compounds” (Kaohsiung Medical University, priority 2008, dated 2012).

How the values were obtained:
[1] = test system: OVCAR-8; assay: In vitro anticancer assay (NCI panel), OVCAR-8; format: cell-based; settings: Homo sapiens; OVCAR-8, ovarian cancer
Experimental: (§1) Selected compounds were evaluated in vitro against the NCI's full panel of 60 cancer cell lines derived from nine cancer cell types, including: leukemia (CCRF-CEM, HL-60 (TB), K-562, MOLT-4, RPMI-8226, and SR); non-small cell lung cancer (A549/ATCC, EKVX, HOP-62, HOP-92, NCI-H226, NCI-H23, NCI-H322M, and NCI-H522); colon cancer (COLO 205, HCC-2998, HCT-116, HCT-15, HT29, KM12, and SW-620); CNS cancer (SF-268, SF-295, SF-539, SNB-19, SNB-75, and U251); melanoma (LOX IMVI, MALME-3M, M14, SK-MEL-2, SK-MEL-28, SK-MEL-5, UACC-62, and UACC-257); ovarian cancer (IGROV1, OVCAR-3, OVCAR-4, OVCAR-5, OVCAR-8, and SK-OV-3); renal cancer (786-0, A498, ACHN, CAKI-1, RXF 393, SN12C, TK-10, and UO-31); prostate cancer (PC-3 and DU-145); and breast cancer (MCF7, MCF7/ADR-RES, MDA-MB-231/ATCC, HS 578T, MDA-MB-435, MDA-N, and T-47D). For each compound, dose-response curves for each cell line were measured with five different drug concentrations, and the concentration causing 50% cell growth inhibition (GI50) compared with the control was calculated. The mean GI50 values of each tested compound for all the 60 tumor cell lines were also calculated.

[2] = test system: SN12C; assay: In vitro anticancer assay (NCI panel), SN12C; format: cell-based; settings: Homo sapiens, renal cancer
Experimental: as §1

[3] = test system: NCI-H460; assay: In vitro anticancer assay (NCI panel), NCI-H460; format: cell-based; settings: Homo sapiens; NCI-H460, non-small cell lung cancer
Experimental: as §1

[4] = test system: A549/ATCC; assay: In vitro anticancer assay (NCI panel), A549/ATCC; format: cell-based; settings: Homo sapiens, non-small cell lung cancer
Experimental: as §1

[5] = test system: OVCAR-3; assay: In vitro anticancer assay (NCI panel), OVCAR-3; format: cell-based; settings: Homo sapiens; OVCAR-3, ovarian cancer
Experimental: as §1

[6] = test system: DU-145; assay: In vitro anticancer assay (NCI panel), DU-145; format: cell-based; settings: Homo sapiens; DU-145, prostate cancer
Experimental: as §1

[7] = test system: HT29; assay: In vitro anticancer assay (NCI panel), HT29; format: cell-based; settings: Homo sapiens, HT-29; HT29, colon cancer
Experimental: as §1

[8] = test system: OVCAR-5; assay: In vitro anticancer assay (NCI panel), OVCAR-5; format: cell-based; settings: Homo sapiens; OVCAR-5, ovarian cancer
Experimental: as §1

[9] = test system: HCT-116; assay: In vitro anticancer assay (NCI panel), HCT-116; format: cell-based; settings: Homo sapiens; HCT-116, colon cancer
Experimental: as §1

[10] = test system: NCI's full panel of 60 cancer cell lines; assay: In vitro anticancer assay, all cell lines of the NCI panel; format: cell-based, human; settings: Homo sapiens, mean values of over all cell lines tested; read-out: MG MID (mean GI50)
Experimental: as §1

[11] = test system: SR; assay: In vitro anticancer assay (NCI panel), SR; format: cell-based; settings: Homo sapiens, leukemia
Experimental: as §1

[12] = test system: HOP-62; assay: In vitro anticancer assay (NCI panel), HOP-62; format: cell-based; settings: Homo sapiens; HOP-62, non-small cell lung cancer
Experimental: as §1

[13] = test system: SF-268; assay: In vitro anticancer assay (NCI panel), SF-268; format: cell-based; settings: Homo sapiens; SF-268, CNS cancer
Experimental: as §1

[14] = test system: SNB-19; assay: In vitro anticancer assay (NCI panel), SNB-19; format: cell-based; settings: Homo sapiens; SNB-19, CNS cancer
Experimental: as §1

[15] = test system: K-562; assay: In vitro anticancer assay (NCI panel), K-562; format: cell-based; settings: Homo sapiens, K562; K-562, leukemia
Experimental: as §1

[16] = test system: HL-60 (TB); assay: In vitro anticancer assay (NCI 60 cell line panel), HL-60 (TB); format: cell-based; settings: Homo sapiens, leukemia
Experimental: as §1

[17] = test system: MDA-MB-231/ATCC; assay: In vitro anticancer assay (NCI panel), MDA-MB-231/ATCC; format: cell-based; settings: Homo sapiens, breast cancer
Experimental: as §1

[18] = test system: ACHN; assay: In vitro anticancer assay (NCI panel), ACHN; format: cell-based; settings: Homo sapiens, renal cancer
Experimental: as §1

[19] = test system: 786-0; assay: In vitro anticancer assay (NCI panel), 786-0; format: cell-based; settings: Homo sapiens; 786-0, renal cancer
Experimental: as §1

[20] = test system: MDA-MB-435; assay: In vitro anticancer assay (NCI panel), MDA-MB-435; format: cell-based; settings: Homo sapiens; MDA-MB-435, breast cancer
Experimental: as §1

[21] = target: telomerase (Homo sapiens, UniProt O14746); assay: Telomeric Repeat Amplification Protocol (TRAP) assay, cell-free; settings: 0.5 μg total cell extract from H1299 human lung cancer cells, FIG. 1
Chain of telomerase (O14746 whole entry): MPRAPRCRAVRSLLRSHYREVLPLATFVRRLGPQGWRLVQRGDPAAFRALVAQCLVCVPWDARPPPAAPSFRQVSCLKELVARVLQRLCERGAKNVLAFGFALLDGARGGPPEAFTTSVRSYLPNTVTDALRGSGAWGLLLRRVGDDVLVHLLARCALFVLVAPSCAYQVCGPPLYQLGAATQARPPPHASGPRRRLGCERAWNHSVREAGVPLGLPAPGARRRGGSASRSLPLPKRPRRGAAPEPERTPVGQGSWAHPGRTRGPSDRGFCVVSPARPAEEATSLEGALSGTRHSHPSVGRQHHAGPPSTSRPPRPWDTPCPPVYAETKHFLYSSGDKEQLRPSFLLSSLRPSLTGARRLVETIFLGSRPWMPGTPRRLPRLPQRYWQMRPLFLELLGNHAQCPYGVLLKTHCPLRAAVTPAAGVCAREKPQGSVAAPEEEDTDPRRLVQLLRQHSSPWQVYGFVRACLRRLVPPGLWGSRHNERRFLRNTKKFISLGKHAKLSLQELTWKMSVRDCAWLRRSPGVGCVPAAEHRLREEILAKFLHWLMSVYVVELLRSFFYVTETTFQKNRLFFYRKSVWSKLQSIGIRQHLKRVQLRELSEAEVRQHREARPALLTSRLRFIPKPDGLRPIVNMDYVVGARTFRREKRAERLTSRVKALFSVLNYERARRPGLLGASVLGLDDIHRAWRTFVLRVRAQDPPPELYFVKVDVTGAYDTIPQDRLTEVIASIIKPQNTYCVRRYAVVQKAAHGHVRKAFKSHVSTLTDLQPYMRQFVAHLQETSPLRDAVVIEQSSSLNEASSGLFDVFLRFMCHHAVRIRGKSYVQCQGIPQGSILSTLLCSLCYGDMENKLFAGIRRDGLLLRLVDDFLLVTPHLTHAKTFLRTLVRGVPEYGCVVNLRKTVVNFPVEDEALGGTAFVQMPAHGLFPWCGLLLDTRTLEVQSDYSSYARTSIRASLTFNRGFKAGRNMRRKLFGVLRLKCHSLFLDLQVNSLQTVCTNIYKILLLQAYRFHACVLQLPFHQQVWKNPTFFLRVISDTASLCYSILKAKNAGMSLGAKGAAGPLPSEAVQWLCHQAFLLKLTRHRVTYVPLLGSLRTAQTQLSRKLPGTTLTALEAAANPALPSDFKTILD

[22] = test system: SK-MEL-2; assay: In vitro anticancer assay (NCI panel), SK-MEL-2; format: cell-based; settings: Homo sapiens; SK-MEL-2, melanoma
Experimental: as §1

[23] = test system: LOX IMVI; assay: In vitro anticancer assay (NCI panel), LOX IMVI; format: cell-based; settings: Homo sapiens, melanoma
Experimental: as §1

[24] = test system: SF-295; assay: In vitro anticancer assay (NCI panel), SF-295; format: cell-based; settings: Homo sapiens; SF-295, CNS cancer
Experimental: as §1

[25] = test system: MCF7; assay: In vitro anticancer assay (NCI panel), MCF7; format: cell-based; settings: Homo sapiens; MCF7, breast cancer
Experimental: as §1

[26] = test system: UACC-62; assay: In vitro anticancer assay (NCI panel), UACC-62; format: cell-based; settings: Homo sapiens; UACC-62, melanoma
Experimental: as §1

[27] = test system: PC-3; assay: In vitro anticancer assay (NCI panel), PC-3; format: cell-based; settings: Homo sapiens; PC-3, prostate cancer
Experimental: as §1

[28] = test system: COLO 205; assay: In vitro anticancer assay (NCI panel), COLO 205; format: cell-based; settings: Homo sapiens; COLO 205, colon cancer
Experimental: as §1

[29] = test system: human leukemia HL-60 cells; settings: previous studies, read-out: GI50 (50% cell growth inhibition); cited from earlier work

Compound	GI50 [1]	GI50 [2]	GI50 [3]	GI50 [4]	GI50 [5]	GI50 [6]	GI50 [7]	GI50 [8]	GI50 [9]	GI50 [10]	GI50 [11]	GI50 [12]	GI50 [13]	GI50 [14]	GI50 [15]	GI50 [16]	GI50 [17]	GI50 [18]	GI50 [19]	GI50 [20]	other results
Cl.c1ccc2c(c1)nc(NCCCNCCCNc1nc3ccccc3c3[nH]c4ccccc4c13)c1c3ccccc3[nH]c21 [Compound 8a, N,N-bis-[3-(11H-indolo[3,2-c]quinolin-6-yl)aminopropyl]amine hydrochloride]	40 nM	30 nM	40 nM	60 nM	520 nM	130 nM	50 nM	220 nM	170 nM	150 nM	30 nM	50 nM	30 nM	70 nM	40 nM	40 nM	180 nM	60 nM	70 nM	850 nM	concentration that completely inhibited telomerase activity [21]: approximately 0.02 nM; GI50 [22]: 550 nM; melting point: 107 to 108 °C; GI50 [23]: 70 nM; GI50 [24]: 100 nM; GI50 [25]: 10 nM; GI50 [26]: 220 nM; GI50 [27]: 360 nM; GI50 [28]: 180 nM
Cl.OCCNCCNc1nc2ccccc2c2[nH]c3ccccc3c12 [Compound 9, 2-[2-(11H-Indolo[3,2-c]quinolin-6-ylamino)ethylamino]ethanol hydrochloride]	810 nM	1260 nM	1460 nM	980 nM	1310 nM	740 nM	560 nM	580 nM	190 nM	1070 nM	900 nM	370 nM	1360 nM	2100 nM	1550 nM	1310 nM	1240 nM	380 nM	340 nM	1460 nM	GI50 [22]: 2250 nM; melting point: 276 °C; GI50 [23]: 440 nM; GI50 [24]: 1410 nM; GI50 [25]: 1240 nM; GI50 [26]: 2000 nM; GI50 [27]: 880 nM; GI50 [28]: 1760 nM
Cl.OCCNc1nc2ccccc2c2[nH]c3ccccc3c12 [Compound 7d, 2-(11H-indolo[3,2-c]quinolin-6-ylamino)ethanol hydrochloride]	360 nM	220 nM	290 nM	410 nM	470 nM	690 nM	280 nM	1030 nM	230 nM	460 nM	210 nM	580 nM	560 nM	410 nM	460 nM	560 nM	430 nM	160 nM	450 nM	410 nM	GI50 [22]: 570 nM; melting point: 344 to 345 °C; GI50 [23]: 360 nM; GI50 [24]: 450 nM; GI50 [25]: 370 nM; GI50 [26]: 1150 nM; GI50 [28]: 310 nM
CN(C)CCNc1nc2ccccc2c2[nH]c3ccccc3c12 [IQDMA, N′-(11H-indolo[3,2-c]quinolin-6-yl)-N,N-dimethyl-ethane-1,2-diamine]	–	–	–	–	–	–	–	–	–	–	–	–	–	–	–	–	–	–	–	–	GI50 [29]: 1980 nM
